In brackets after ≈: the same amount, converted by molar mass.
Key:
Type in all cases: cell-based
[1] = system: Spiroplasma citri; assay: in vitro inhibition of Spiroplasma citri measured by a color reaction; parameters: key to Activity (color reaction): Red (R) includes complete inhibition; red-orange (RO) indicates partial inhibition; yellow (Y) indicates no inhibition
Method: In another important aspect, the compounds of this invention are active against Spiroplasmas. Spiroplasma citri is the causative agent of citrus-stubborn disease; another Spiroplasma, corn-stunt Spiroplasma, affects the growth of corn. Table VII summarizes the in vitro activity of representative compounds of the present invention (R^2 =H in this group) against Spiroplasma citri. In this test, inhibition of S. citri is measured by a color reaction. Red (R) includes complete inhibition; red-orange (RO) indicates partial inhibition; and yellow (Y) indicates no inhibition.

[2] = system: Peptococcus prevoti; assay: standard agar-dilution test, anaerobic bacteria; conditions: Peptococcus prevoti; 24-hour incubation; read-out: MIC
[3] = system: Actinomyces israelii; assay: standard agar-dilution test, anaerobic bacteria; conditions: 24-hour incubation
[4] = system: Bacteroides fragilis 1877; assay: standard agar-dilution test, anaerobic bacteria; conditions: Bacteroides fragilis 1877; 24-hour incubation; read-out: MIC
[5] = system: Bacteroides corrodens; assay: standard agar-dilution test, anaerobic bacteria; conditions: Eikenella corrodens; Bacteroides corrodens; 24-hour incubation; read-out: MIC
[6] = system: Bacteroides fragilis 111; assay: standard agar-dilution test, anaerobic bacteria; conditions: Bacteroides fragilis 111; 24-hour incubation; read-out: MIC
[7] = system: Bacteroides melaninogenicus 1856/28; assay: standard agar-dilution test, anaerobic bacteria; conditions: Prevotella intermedia; Bacteroides melaninogenicus 1856/28; 24-hour incubation; read-out: MIC
[8] = system: Peptostreptococcus anaerobius; assay: standard agar-dilution test, anaerobic bacteria; conditions: 24-hour incubation
[9] = system: Fusobacterium symbiosum; assay: standard agar-dilution test, anaerobic bacteria; conditions: Fusobacterium symbiosum; 24-hour incubation; read-out: MIC
[10] = system: Bacteroides vulgatis; assay: standard agar-dilution test, anaerobic bacteria; conditions: Bacteroides vulgatis; 24-hour incubation; read-out: MIC
[11] = system: Staphylococcus aureus (H-Heatley) NRRL B-314; assay: in vitro turbidometric assay (Autoturb Microbiological Assay System) against Staphylococcus aureus; conditions: nutrient broth pH 7, approximately 4 hours at 37° C., A-40104 factor A as standard
Method: The compounds are conveniently tested against a typical gram-positive organism, Staphylococcus aureus, using a turbidometric assay on a semi-automated system (Autoturb Microbiological Assay System, Elanco) described by N. R. Kuzel and F. W. Kavanagh in J. Pharmaceut. Sci, 60 (5), 764 and 767 (1971). In testing these compounds, the following parameters were used: Staphylococcus aureus (H-Heatley) NRRL B-314 in a nutrient broth medium (pH 7), incubated for approximately 4 hours at 37° C. Test samples and A-40104 factor A, which is used as a standard, were dissolved in water. The standard was presented to the Autoturb carrousel at concentrations of 1.25, 2.50, 3.75, 5.00 and 6.25 mcg/ml. Test compounds were diluted to contain approximately 2.5 to 5.0 mcg of activity per ml, as presented to the carrousel. The units of activity of some of the typical compounds of this invention (R^2 =H in group tested) in this in vitro assay are summarized in Table I

[12] = system: Fusobacterium necrophorum; assay: standard agar-dilution test, anaerobic bacteria; conditions: 24-hour incubation, read-out: MIC
[13] = system: Clostridium perfringens; assay: microbe, parasite or virus in culture; conditions: 24 h
[14] = system: Bacteroides fragilis 1936B; assay: standard agar-dilution test, anaerobic bacteria; conditions: Bacteroides fragilis 1936B; 24-hour incubation; read-out: MIC
[15] = system: Eubacterium aerofaciens; assay: standard agar-dilution test, anaerobic bacteria; conditions: Collinsella aerofaciens; Eubacterium aerofaciens; 24-hour incubation; read-out: MIC
[16] = system: Peptococcus asaccharolyticus; assay: standard agar-dilution test, anaerobic bacteria; conditions: Peptoniphilus asaccharolyticus, 24-hour incubation
[17] = system: Bacteroides thetaiotaomicron; assay: standard agar-dilution test, anaerobic bacteria; conditions: 24-hour incubation
Method: (§1) Table IV summarizes the activity of typical compounds of this invention, as determined by the standard agar-dilution test.
(§2) *Endpoint read after 24-hour incubation

[18] = system: Clostridium septicum; assay: standard agar-dilution test, anaerobic bacteria; conditions: 24-hour incubation
Method: as §1, §2

[19] = system: Peptostreptococcus intermedius; assay: standard agar-dilution test, anaerobic bacteria; conditions: Peptostreptococcus intermedius; 24-hour incubation; read-out: MIC
[20] = system: Bacteroides melaninogenicus 2736; assay: standard agar-dilution test, anaerobic bacteria; conditions: Bacteroides melaninogenicus 2736; 24-hour incubation; read-out: MIC
[21] = system: Mycoplasma gallisepticum; assay: in vitro broth-dilution studies, mycoplasma; conditions: Mycoplasmoides gallisepticum
From the text: (§3) The minimal inhibitory concentrations (MIC's) of a number of typical compounds of the present invention (R^2 =H in group tested) against various mycoplasma species, as determined by in vitro broth-dilution studies, are summarized in Table V.

[22] = system: Mycoplasma hyorhinis; assay: in vitro broth-dilution studies, mycoplasma
From the text: as §3

[23] = system: Mycoplasma synoviae; assay: in vitro broth-dilution studies, mycoplasma; conditions: Mycoplasmopsis synoviae
From the text: as §3

SMILES | Activity (color reaction) ([1]; 1.0 ppm) | MIC [2] [mg/L] | MIC [3] [mg/L] | MIC [4] [mg/L] | MIC [5] [mg/L] | MIC [6] [mg/L] | MIC [7] [mg/L] | MIC [8] [mg/L] | MIC [9] [mg/L] | MIC [10] [mg/L] | Units of Activity [11] [µg/mg] | MIC [12] [mg/L] | MIC [13] [mg/L] | MIC [14] [mg/L] | MIC [15] [mg/L] | MIC [16] [mg/L] | MIC [17] [mg/L] | MIC [21] [mg/L] | MIC [22] [mg/L] | MIC [23] [mg/L] | other results
CC[C@]1(C)C[C@@H](OC(=O)CS[C@@H]2O[C@H](CO)[C@@H](O)[C@H](O)[C@H]2O)[C@]2(C)[C@H](C)CC[C@]3(CCC(=O)[C@H]32)[C@@H](C)[C@@H]1O [Compound 5, 14-deoxy-14-[(β-D-glucopyranosyl)thioacetoxy]-19,20-dihydromutilin] | R | 2 (≈ 3.58 µM) | ≤ 0.5 | 64 (≈ 115 µM) | 64 (≈ 115 µM) | 64 (≈ 115 µM) | 2 (≈ 3.58 µM) | 8 (≈ 14.3 µM) | 16 (≈ 28.6 µM) | 32 (≈ 57.3 µM) | 29 to 31 | 8 (≈ 14.3 µM) | 8 (≈ 14.3 µM) | 128 (≈ 229 µM) | 4 (≈ 7.16 µM) | 4 (≈ 7.16 µM) | 64 (≈ 115 µM) | – | – | – | Activity (color reaction) ([1]; 0.01 ppm): Y; Activity (color reaction) ([1]; 0.05 ppm): R; Activity (color reaction) ([1]; 0.1 ppm): R; MIC [18]: 32 mg/L (≈ 57.3 µM); MIC [19]: 2 mg/L (≈ 3.58 µM); MIC [20]: 4 mg/L (≈ 7.16 µM)
C=C[C@]1(C)C[C@@H](OC(=O)CO[C@H]2O[C@H](COCc3ccccc3)[C@@H](OCc3ccccc3)[C@H](OCc3ccccc3)[C@H]2OCc2ccccc2)[C@]2(C)[C@H](C)CC[C@]3(CCC(=O)[C@H]32)[C@@H](C)[C@@H]1O [Example 1, 14-deoxy-14-[(2,3,4,6-tetra-O-benzyl-α-D-glucopyranosyl)oxyacetoxy]mutilin] | – | – | – | – | – | – | – | – | – | – | – | – | – | – | – | – | – | 25 (≈ 27.7 µM) | 50 (≈ 55.5 µM) | 50 (≈ 55.5 µM) | –
C=C[C@]1(C)C[C@@H](OC(=O)CS[C@@H]2O[C@H](CO)[C@@H](O)[C@H](O)[C@H]2O)[C@]2(C)[C@H](C)CC[C@]3(CCC(=O)[C@H]32)[C@@H](C)[C@@H]1O [Compound 10, 14-deoxy-14-[(β-D-glucopyranosyl)thioacetoxy]mutilin] | – | 16 (≈ 28.7 µM) | 2 (≈ 3.59 µM) | 64 (≈ 115 µM) | 64 (≈ 115 µM) | 128 (≈ 230 µM) | > 128 | ≤ 0.5 | 64 (≈ 115 µM) | 64 (≈ 115 µM) | 36 | 2 (≈ 3.59 µM) | 64 (≈ 115 µM) | 64 (≈ 115 µM) | 16 (≈ 28.7 µM) | 16 (≈ 28.7 µM) | 64 (≈ 115 µM) | 1.56 (≈ 2.8 µM) | 1.56 (≈ 2.8 µM) | 3.12 (≈ 5.6 µM) | MIC [18]: 64 mg/L (≈ 115 µM); MIC [19]: 4 mg/L (≈ 7.18 µM); MIC [20]: 32 mg/L (≈ 57.5 µM)
C=C[C@]1(C)C[C@@H](OC(=O)CO[C@@H]2O[C@H](COC(C)=O)[C@@H](OC(C)=O)[C@H](OC(C)=O)[C@H]2OC(C)=O)[C@]2(C)[C@H](C)CC[C@]3(CCC(=O)[C@H]32)[C@@H](C)[C@@H]1O [Example 3, 14-deoxy-14-[(2,3,4,6-tetra-O-acetyl-β-D-glucopyranosyl)oxyacetoxy]mutilin] | R | – | – | – | – | – | – | – | – | – | 75 to 85 | – | – | – | – | – | – | 0.78 (≈ 1.1 µM) | 0.78 (≈ 1.1 µM) | 0.78 (≈ 1.1 µM) | –
